In patent US20090060873A1, “Novel synthetic triterpenoids and methods of use in the treatment and prevention of multiple scleroris” (Reata Pharmaceuticals, Inc., priority 2007, published 2009):
Entries after “also recorded” stand apart in the source; their conditions may differ. One block for each molecule: values may come before it.

Assays:
MOG-induced EAE [1] = assay: Prophylactic treatment in MOG EAE model; type: in vivo, mouse; details: 100 nanomoles IP, pre and/or post MOG (Day -1, 1, 3, 5); FIGS. 23, 24
Experimental: FIGS. 23 & 24—Prophylactic Treatment of CDDO-Me (RTA 402) or CDDO-TFEA (RTA-404) Delays Induction of Symptoms in Model of Multiple Sclerosis.
In prophylactic studies (FIGS. 23-24) the following design was used:
Day-1: 100 nanomoles IP RTA 404 (2.9 mg/kg) or RTA 402 (2.5 mg/kg) in pre and pre/post groups
Day 1: 100 nanomoles IP RTA 404 (2.9 mg/kg) or RTA 402 (2.5 mg/kg) in post and pre/post groups
Day 3: 100 nanomoles IP RTA 404 (2.9 mg/kg) or RTA 402 (2.5 mg/kg) in post and pre/post groups
Day 5: 100 nanomoles IP RTA 404 (2.9 mg/kg) or RTA 402 (2.5 mg/kg) in post and pre/post groups

MOG-induced EAE [2] = assay: MOG-induced rapidly progressive EAE model, treatment, clinical score; type: in vivo, mouse; details: 100 nmol (~2.8 mg/kg) IP, Q2Dx4, in 7.5% PBST, n=2/group
[3] = Tissue distribution of CDDO-Me in cynomolgus monkeys after 3 days of oral dosing; type: in vivo; details: cynomolgus monkey, about 3 h after last dose, sesame oil vehicle
Experimental: Experiments using CDDO-Me (RTA-402) were also conducted on 1 male and 1 female cynomolgus monkey (origin: Vietnam) between the ages of 2 and 3 years and weighing approximately 1.7 kg. Each received the test article (CDDO-Me in sesame oil) at 75 mg/kg/day via oral gavage administered at a volume of 5 mL/kg on Days 1, 2, and 3. Individual doses were based on the most recently obtained body weights. Blood samples were collected from the femoral artery/vein for determination of the plasma concentrations of the test article at 0.5, 1.5, 3, and 12 hours after dosing on Days 1 and 2 and at 0.5, 1.5, and 3 hours after dosing (±0.5 hour) on Day 3.
At the termination of the study (approximately three hours after dosing on Day 3), all animals were euthanized and tissues collected. Samples (approximately 1 g or greater) of the adipose tissue, brain, colon, cheek pouch (buccal mucosa), heart, ileum, kidney, liver, lung, mammary glands, ovaries, pancreas, prostate, and bone marrow from the femur (as much as possible) were collected and frozen at approximately −20° C. for analysis for the presence of the test article. All other tissues and organs were discarded.
In Table 1 nM is ng/mL×1000/505.8, where 505.8 is the molecular weight of RTA-402 using the approximation that the density of the tissue is that of water.

NF-κB = NF-κB activated by TNF, IL-1β, phorbol ester, okadaic acid, hydrogen peroxide, LPS, cigarette smoke; cited from earlier work
[4] = Brain levels of triterpenoids in mice fed compound in diet (LC/MS)
heme oxygenase-1 (HO-1) = details: nanomolar concentrations; cited from earlier work

Structure (SMILES): COC(=O)[C@]12CCC(C)(C)C[C@H]1[C@H]1C(=O)C=C3[C@@]4(C)C=C(C#N)C(=O)C(C)(C)[C@@H]4CC[C@@]3(C)[C@]1(C)CC2 [CDDO-Me]
- delay of development of clinical scores (MOG-induced EAE [1]): modestly delayed
- recovery of clinical score (CS 0 no symptoms, 6 quadriplegia) (MOG-induced EAE [2]): induce full recovery of mice
- recovery of clinical score (CS 0 no symptoms, 6 quadriplegia) (MOG-induced EAE [2]; listed as RTA 402): induce complete recovery of symptoms after initial relapse
- recovery of clinical score (CS 0 no symptoms, 6 quadriplegia) (MOG-induced EAE [2]; listed as RTA-402): Induce Full Recovery of Mice; also recorded: Treated Animals Recover
- average tissue concentration, Breast [3]: 4,389 nM
- average tissue concentration, Colon [3]: 4,467 nM
- average tissue concentration, Kidney [3]: 1,603 nM
- average tissue concentration, Liver [3]: 926 nM
- average tissue concentration, Lung [3]: 4,992 nM
- average tissue concentration, Ovary [3]: 2,115 nM
- average tissue concentration, Prostate [3]: 4,446 nM
- tissue concentration, Brain (range of results obtained) [3]: 215 to 447 nM
- inhibition of constitutive and inducible NF-κB (NF-κB): potently inhibits both constitutive and inducible NF-κB
- level of compound in mouse brain ([4]; fed very low levels in diet for one week (100 mg/kg diet), FIG. 1): able to reach appreciable levels in the brain; also recorded: Detectable in the Brains of Mice

Structure (SMILES): CC1(C)CC[C@]2(C(=O)O)CC[C@]3(C)[C@H](C(=O)C=C4[C@@]5(C)C=C(C#N)C(=O)C(C)(C)[C@@H]5CC[C@]43C)[C@@H]2C1 [CDDO, 2-cyano-3,12-dioxooleane-1,9(11)-dien-28-oic acid]
- expression of HO-1 (heme oxygenase-1 (HO-1)): rapidly increase the expression of the cytoprotective heme oxygenase-1 (HO-1) enzyme

Structure (SMILES): CC1(C)CC[C@]2(C(=O)n3ccnc3)CC[C@]3(C)[C@H](C(=O)C=C4[C@@]5(C)C=C(C#N)C(=O)C(C)(C)[C@@H]5CC[C@]43C)[C@@H]2C1 [CDDO-Im]
- expression of HO-1 (heme oxygenase-1 (HO-1)): rapidly increase the expression of the cytoprotective heme oxygenase-1 (HO-1) enzyme

- concentration in brains of mice ([4]; 800 mg/kg diet, 2 or 4 days, FIG. 2): Significant Concentrations
Structure (SMILES): CNC(=O)[C@]12CCC(C)(C)C[C@H]1C1C(=O)C=C3[C@@]4(C)C=C(C#N)C(=O)C(C)(C)[C@@H]4CC[C@@]3(C)[C@]1(C)CC2 (some centres unmarked) [CDDO-MA]
